Assay results published in US20020049223A1, “Quinoline and naphthyridine carboxylic acid antibacterials” (priority 1999, published 2002).

Columns and labels:
Test in all cases: Assay B: in vitro antibacterial activity, broth microdilution MIC (NCCLS)
Format in all cases: cell-based
[1] = system: Staphylococcus aureus ATCC 6538P; conditions: Table 2, Assay B, cation-adjusted Mueller Hinton broth, 35° C., 16 to 20 hr; code A = Staphylococcus aureus ATCC 6538P; unit assumed
Summary of the method: (§1)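 Growth inhibition read by eye after incubation at 35° C (16 to 20 hr; 20 to 24 hr for S. pneumoniae and H. influenzae). Medium: cation-adjusted Mueller Hinton broth, supplemented with 3% lysed horse blood or with 5 g/L yeast extract, 0.3 mmol/L hematin and 15 mg/L NAD, respectively.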

[2] = system: Haemophilus influenzae DILL AMP R; conditions: Table 2, Assay B, Mueller Hinton broth with yeast extract, hematin and NAD, 20 to 24 hr; code E = Haemophilus influenzae DILL AMP R; unit assumed
Summary of the method: as §1

[3] = system: Enterococcus faecalis PIU 1967; conditions: Table 2, Assay B, cation-adjusted Mueller Hinton broth, 35° C., 16 to 20 hr; code B = Enterococcus faecalis PIU 1967; unit assumed
Summary of the method: as §1

[4] = system: Streptococcus pneumoniae ATCC 6303; conditions: Table 2, Assay B, Mueller Hinton broth with 3% lysed horse blood, 20 to 24 hr; code F = Streptococcus pneumoniae ATCC 6303; unit assumed
Summary of the method: as §1

[5] = system: Escherichia coli JUHL; conditions: Table 2, Assay B, cation-adjusted Mueller Hinton broth, 35° C., 16 to 20 hr; code D = Escherichia coli JUHL; unit assumed
Summary of the method: as §1

Row | SMILES | Antibacterial Activity (MIC's), A [1] | Antibacterial Activity (MIC's), E [2] | Antibacterial Activity (MIC's), B [3] | Antibacterial Activity (MIC's), F [4] | Antibacterial Activity (MIC's), D [5]
1 | CNC1CCCc2sc(-c3cc4c(cc3F)c(=O)c(C(=O)O)cn4C3CC3)cc21.Cl (stereo not drawn) [Example 290, 1-cyclopropyl-6-fluoro-7-(4-(methylamino)-4,5,6,7-tetrahydro-1-benzothien-2-yl)-4-oxo-1,4-dihydroquinoline-3-carboxylic acid hydrochloride] | 0.03 µg/mL | 0.015 µg/mL | 0.125 µg/mL | 0.03 µg/mL | 0.03 µg/mL
2 | CNC1CCCc2sc(-c3c(F)cc4c(=O)c(C(=O)O)cn(C5CC5)c4c3F)cc21.Cl (stereo not drawn) [Example 291, 1-cyclopropyl-6,8-difluoro-7-(4-(methylamino)-4,5,6,7-tetrahydro-1-benzothien-2-yl)-4-oxo-1,4-dihydroquinoline-3-carboxylic acid hydrochloride] | 0.015 µg/mL | 0.015 µg/mL | 0.125 µg/mL | 0.03 µg/mL | 0.03 µg/mL
3 | O=C(O)c1cn(C2CC2)c2c(F)c(-c3cc4c(s3)CCCC4O)c(F)cc2c1=O (stereo not drawn) [Example 294, 1-cyclopropyl-6,8-difluoro-7-(4-hydroxy-4,5,6,7-tetrahydro-1-benzothien-2-yl)-4-oxo-1,4-dihydroguinoline-3-carboxylic acid] | ≤ 0.004 µg/mL | ≤ 0.004 µg/mL | 0.015 µg/mL | 0.03 µg/mL | 0.03 µg/mL
4 | O=C(O)c1cn(C2CC2)c2c(F)c(-c3cc4c(s3)C(O)CCC4)c(F)cc2c1=O (stereo not drawn) [Example 295, 1-cyclopropyl-6,8-difluoro-7-(7-hydroxy-4,5,6,7-tetrahydro-1-benzothien-2-yl)-4-oxo-1,4-dihydroquinoline-3-carboxylic acid] | ≤ 0.004 µg/mL | ≤ 0.004 µg/mL | 0.008 µg/mL | 0.03 µg/mL | 0.03 µg/mL
5 | O=C(O)c1cn(C2CC2)c2cc(-c3cc4c(s3)CCCC4O)c(F)cc2c1=O (stereo not drawn) [Example 296, 1-cyclopropyl-6-fluoro-7-(4-hydroxy-4,5,6,7-tetrahydro-1-benzothien-2-yl)-4-oxo-1,4-dihydroquinoline-3-carboxylic acid] | ≤ 0.004 µg/mL | 0.06 µg/mL | 0.25 µg/mL | 0.5 µg/mL | 0.5 µg/mL
6 | COc1c(-c2cc3c(s2)C(O)CCC3)c(F)cc2c(=O)c(C(=O)O)cn(C3CC3)c12 (stereo not drawn) [Example 299, 1-cyclopropyl-6-fluoro-7-(7-hydroxy-4,5,6,7-tetrahydro-1-benzothien-2-yl)-8-methoxy-4-oxo-1,4-dihydroquinoline-3-carboxylic acid] | ≤ 0.004 µg/mL | 0.03 µg/mL | 0.06 µg/mL | 0.06 µg/mL | 0.125 µg/mL
7 | Cl.NC1CCCc2sc(-c3cc4c(cc3F)c(=O)c(C(=O)O)cn4C3CC3)cc21 (stereo not drawn) [Example 307, 7-(4-amino-4,5,6,7-tetrahydro-1-benzothien-2-yl)-1-cyclopropyl-6-fluoro-4-oxo-1,4-dihydroquinoline-3-carboxylic acid hydrochloride] | 0.008 µg/mL | 0.015 µg/mL | 0.03 µg/mL | 0.008 µg/mL | 0.03 µg/mL
8 | Cl.NC1CCCc2sc(-c3c(F)cc4c(=O)c(C(=O)O)cn(C5CC5)c4c3F)cc21 (stereo not drawn) [Example 308, 7-(4-amino-4,5,6,7-tetrahydro-1-benzothien-2-yl)-1-cyclopropyl-6,8-difluoro-4-oxo-1,4-dihydroquinoline-3-carboxylic acid hydrochloride] | 0.008 µg/mL | 0.015 µg/mL | 0.03 µg/mL | 0.015 µg/mL | 0.03 µg/mL

Results, then the compound that gave them:

Row | Antibacterial Activity (MIC's), A [1] | Antibacterial Activity (MIC's), E [2] | Antibacterial Activity (MIC's), B [3] | Antibacterial Activity (MIC's), F [4] | Antibacterial Activity (MIC's), D [5] | SMILES
9 | 0.03 µg/mL | 0.06 µg/mL | 0.125 µg/mL | 0.25 µg/mL | 0.125 µg/mL | O=C(O)c1cn(C2CC2)c2cc(-c3cc4c(s3)CCCC4O)ccc2c1=O (stereo not drawn) [Example 281, 1-cyclopropyl-7-(4-hydroxy-4,5,6,7-tetrahydro-1-benzothien-2-yl)-4-oxo-1,4-dihydroquinoline-3-carboxylic acid]
10 | 0.008 µg/mL | 0.03 µg/mL | 0.03 µg/mL | 0.015 µg/mL | 0.015 µg/mL | Cl.NC1CCCc2cc(-c3ccc4c(=O)c(C(=O)O)cn(C5CC5)c4n3)sc21 (stereo not drawn) [Example 282, 7-(7-amino-4,5,6,7-tetrahydro-1-benzothien-2-yl)-1-cyclopropyl-4-oxo-1,4-dihydro-1,8-naphthyridine-3-carboxylic acid hydrochloride]
11 | 0.03 µg/mL | 0.03 µg/mL | 0.125 µg/mL | 0.03 µg/mL | 0.06 µg/mL | Cl.NC1CCCc2sc(-c3ccc4c(=O)c(C(=O)O)cn(C5CC5)c4c3)cc21 (stereo not drawn) [Example 287, 7-(4-amino-4,5,6,7-tetrahydro-1-benzothien-2-yl)-1-cyclopropyl-4-oxo-1,4-dihydroquinoline-3-carboxylic acid hydrochloride]
12 | 0.03 µg/mL | 0.015 µg/mL | 0.125 µg/mL | 0.03 µg/mL | 0.03 µg/mL | Cl.NC1CCCc2cc(-c3ccc4c(=O)c(C(=O)O)cn(C5CC5)c4c3)sc21 (stereo not drawn) [Example 288, 7-(7-amino-4,5,6,7-tetrahydro-1-benzothien-2-yl)-1-cyclopropyl-4-oxo-1,4-dihydroquinoline-3-carboxylic acid hydrochloride]
13 | ≤ 0.004 µg/mL | ≤ 0.004 µg/mL | 0.008 µg/mL | 0.03 µg/mL | 0.015 µg/mL | O=C(O)c1cn(C2CC2)c2cc(-c3cc4c(s3)C(O)CCC4)c(F)cc2c1=O (stereo not drawn) [Example 293, 1-cyclopropyl-6-fluoro-7-(7-hydroxy-4,5,6,7-tetrahydro-1-benzothien-2-yl)-4-oxo-1,4-dihydroquinoline-3-carboxylic acid]
14 | 0.015 µg/mL | 0.015 µg/mL | 0.06 µg/mL | 0.06 µg/mL | 0.03 µg/mL | Cl.NC1CCCc2cc(-c3c(F)cc4c(=O)c(C(=O)O)cn(C5CC5)c4c3F)sc21 (stereo not drawn) [Example 309, 7-(7-amino-4,5,6,7-tetrahydro-1-benzothien-2-yl)-1-cyclopropyl-6,8-difluoro-4-oxo-1,4-dihydroquinoline-3-carboxylic acid hydrochloride]
15 | 0.008 µg/mL | 0.015 µg/mL | 0.015 µg/mL | 0.008 µg/mL | 0.015 µg/mL | Cl.NC1CCCc2cc(-c3cc4c(cc3F)c(=O)c(C(=O)O)cn4C3CC3)sc21 (stereo not drawn) [Example 310, 7-(7-amino-4,5,6,7-tetrahydro-1-benzothien-2-yl)-1-cyclopropyl-6-fluoro-4-oxo-1,4-dihydroquinoline-3-carboxylic acid hydrochloride]
